Test results from ChEMBL document CHEMBL1201862, “PubChem BioAssay data set” (2004).
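Where inhibition never reached the appropriate level, the endpoint shown equals the highest concentration tested. Otherwise, values were interpolated linearly from a five-concentration, 48-hour dose response in 96-well plates. At the GI50, growth is halved.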 The source made the active and inactive calls. No stated cut-off is given here; in the data, active = GI50 up to about 1.1 µM and inactive = higher.

Assays:
Assay in all cases: growth of human tumour cells (NCI), 48 h
[1] = test system: 786-0
[2] = test system: A498
[3] = test system: A549
[4] = test system: ACHN
[5] = test system: CAKI-1
[6] = test system: CCRF-CEM
[7] = test system: COLO 205
[8] = test system: DLD-1
[9] = test system: DMS-114
[10] = test system: DMS-273
[11] = test system: EKVX
[12] = test system: HCC 2998
[13] = test system: HCT-116
[14] = test system: HCT-15
[15] = test system: HL-60
[16] = test system: HOP-18
[17] = test system: HOP-62
[18] = test system: HOP-92
[19] = test system: HT-29
[20] = test system: IGROV-1
[21] = test system: K562
[22] = test system: KM-20L2
[23] = test system: KM12
[24] = test system: LOX IMVI
[25] = test system: LXFL 529
[26] = test system: M14
[27] = test system: M19-MEL
[28] = test system: MOLT-4
[29] = test system: Malme-3M
[30] = test system: NCI-H226
[31] = test system: NCI-H23
[32] = test system: NCI-H460
[33] = test system: OVCAR-3
[34] = test system: OVCAR-4
[35] = test system: OVCAR-5
[36] = test system: OVCAR-8
[37] = test system: RPMI-8226
[38] = test system: RXF 393
[39] = test system: RXF 631
[40] = test system: SF-268
[41] = test system: SF-295
[42] = test system: SF-539
[43] = test system: SK-MEL-28
[44] = test system: SK-MEL-2
[45] = test system: SK-MEL-5
[46] = test system: SK-OV-3
[47] = test system: SN12C
[48] = test system: SNB-75
[49] = test system: SNB-78
[50] = test system: SR
[51] = test system: SW-620
[52] = test system: TK-10
[53] = test system: U-251
[54] = test system: UACC-257
[55] = test system: UACC-62
[56] = test system: UO-31
[57] = test system: XF498
[58] = test system: NCI-H522
[59] = test system: SNB-19

Question: How did the GI50 [1] turn out when C/C(=N\NC(N)=S)c1cc(C)c(C)cc1C was run?
Answer: 93.8 µM (inactive)

Question: And the GI50 [2]?
Answer: 81.7 µM (inactive)

Question: What about the GI50 [3] of the same compound?
Answer: 45.2 µM (inactive)

Question: What about the GI50 [4] of the same compound?
Answer: > 100 µM (inactive)

Question: And the GI50 [5]?
Answer: > 100 µM (inactive)

Question: What about the GI50 [6] of the same compound?
Answer: 29.9 µM (inactive)

Question: And the GI50 [7]?
Answer: 27.7 µM (inactive)

Question: What about the GI50 [8] of the same compound?
Answer: 53.3 µM (inactive)

Question: What about the GI50 [9] of the same compound?
Answer: 21 µM (inactive)

Question: And the GI50 [10]?
Answer: 19.3 µM (inactive)

Question: And the GI50 [11]?
Answer: 8.69 µM (inactive)

Question: What about the GI50 [12] of the same compound?
Answer: 52.5 µM (inactive)

Question: And the GI50 [13]?
Answer: > 100 µM (inactive)

Question: And the GI50 [14]?
Answer: 83.8 µM

Question: What about the GI50 [15] of the same compound?
Answer: 21.7 µM (inactive)

Question: What about the GI50 [16] of the same compound?
Answer: 62.8 µM (inactive)

Question: What about the GI50 [17] of the same compound?
Answer: > 100 µM (inactive)

Question: What about the GI50 [18] of the same compound?
Answer: > 100 µM (inactive)

Question: What about the GI50 [19] of the same compound?
Answer: 20.2 µM (inactive)

Question: And the GI50 [20]?
Answer: 31 µM (inactive)

Question: And the GI50 [21]?
Answer: 40.3 µM (inactive)

Question: And the GI50 [22]?
Answer: 35.6 µM (inactive)

Question: And the GI50 [23]?
Answer: 25.5 µM (inactive)

Question: And the GI50 [24]?
Answer: 70.8 µM (inactive)

Question: And the GI50 [25]?
Answer: 27.7 µM (inactive)

Question: What about the GI50 [26] of the same compound?
Answer: 37.2 µM (inactive)

Question: And the GI50 [27]?
Answer: 25.9 µM (inactive)

Question: And the GI50 [28]?
Answer: 20.2 µM (inactive)

Question: What about the GI50 [29] of the same compound?
Answer: 32.6 µM (inactive)

Question: And the GI50 [30]?
Answer: > 100 µM (inactive)

Question: And the GI50 [31]?
Answer: 41.7 µM (inactive)

Question: And the GI50 [32]?
Answer: 43.9 µM (inactive)

Question: And the GI50 [33]?
Answer: 24.4 µM (inactive)

Question: What about the GI50 [34] of the same compound?
Answer: 30.9 µM (inactive)

Question: What about the GI50 [35] of the same compound?
Answer: 20.1 µM (inactive)

Question: What about the GI50 [36] of the same compound?
Answer: > 100 µM (inactive)

Question: What about the GI50 [37] of the same compound?
Answer: 31.3 µM (inactive)

Question: And the GI50 [38]?
Answer: 29 µM (inactive)

Question: And the GI50 [39]?
Answer: 57.7 µM (inactive)

Question: And the GI50 [40]?
Answer: 62.4 µM (inactive)

Question: And the GI50 [41]?
Answer: 47 µM (inactive)

Question: What about the GI50 [42] of the same compound?
Answer: 35.5 µM (inactive)

Question: What about the GI50 [43] of the same compound?
Answer: 86.7 µM (inactive)

Question: What about the GI50 [44] of the same compound?
Answer: 34.6 µM (inactive)

Question: What about the GI50 [45] of the same compound?
Answer: 57 µM (inactive)

Question: What about the GI50 [46] of the same compound?
Answer: > 100 µM (inactive)

Question: And the GI50 [47]?
Answer: > 100 µM (inactive)

Question: And the GI50 [48]?
Answer: 30.6 µM (inactive)

Question: What about the GI50 [49] of the same compound?
Answer: > 100 µM (inactive)

Question: What about the GI50 [50] of the same compound?
Answer: 37 µM (inactive)

Question: What about the GI50 [51] of the same compound?
Answer: 44 µM (inactive)

Question: What about the GI50 [52] of the same compound?
Answer: 89.5 µM (inactive)

Question: What about the GI50 [53] of the same compound?
Answer: 48.6 µM (inactive)

Question: What about the GI50 [54] of the same compound?
Answer: 90.8 µM (inactive)

Question: What about the GI50 [55] of the same compound?
Answer: 30.9 µM (inactive)

Question: And the GI50 [56]?
Answer: 56.8 µM (inactive)

Question: And the GI50 [57]?
Answer: 23 µM (inactive)

Question: Which results are given for COc1cc(CCc2ccc(N)cc2)cc(OC)c1OC?
Answer: GI50 [1]: > 92.7 µM (inactive); GI50 [2]: 56.1 µM (inactive); GI50 [3]: 51.6 µM (inactive); GI50 [4]: > 100 µM (inactive); GI50 [5]: 67.8 µM (inactive); GI50 [6]: 49.4 µM (inactive); GI50 [7]: 18.9 µM (inactive); GI50 [8]: > 100 µM (inactive); GI50 [9]: 34.3 µM (inactive); GI50 [10]: 37.9 µM (inactive); GI50 [11]: > 66.5 µM (inactive); GI50 [12]: > 47.8 µM (inactive); GI50 [13]: 50.9 µM (inactive); GI50 [14]: 43.4 µM; GI50 [15]: > 48 µM (inactive); GI50 [16]: > 71 µM (inactive); GI50 [17]: > 42.7 µM (inactive); GI50 [18]: 35.4 µM (inactive); GI50 [19]: 41.5 µM (inactive); GI50 [20]: > 86.9 µM (inactive); GI50 [21]: 46.1 µM (inactive); GI50 [22]: 44.2 µM (inactive); GI50 [23]: 18.7 µM (inactive); GI50 [24]: 61 µM (inactive); GI50 [25]: 59 µM (inactive); GI50 [26]: 54.6 µM (inactive); GI50 [27]: 55.8 µM (inactive); GI50 [28]: 36.9 µM (inactive); GI50 [29]: 28.2 µM (inactive); GI50 [30]: > 76.2 µM (inactive); GI50 [31]: 92.3 µM (inactive); GI50 [32]: 55.1 µM (inactive); GI50 [58]: 31.5 µM (inactive); GI50 [33]: 41.1 µM (inactive); GI50 [34]: 63.5 µM (inactive); GI50 [35]: > 100 µM (inactive); GI50 [36]: > 75.9 µM (inactive); GI50 [37]: 64.6 µM (inactive); GI50 [38]: 50.9 µM (inactive); GI50 [39]: > 58.1 µM (inactive); GI50 [40]: > 69.3 µM (inactive); GI50 [41]: 12.2 µM (inactive); GI50 [42]: 26.1 µM (inactive); GI50 [43]: 46 µM (inactive); GI50 [44]: 27.8 µM (inactive); GI50 [45]: 29.4 µM (inactive); GI50 [46]: > 91.4 µM (inactive); GI50 [47]: > 54.8 µM (inactive); GI50 [59]: > 100 µM (inactive); GI50 [48]: > 56 µM (inactive); GI50 [49]: 39.1 µM (inactive); GI50 [51]: 45.5 µM (inactive); GI50 [52]: > 74.3 µM (inactive); GI50 [53]: > 53.2 µM (inactive); GI50 [54]: > 94.4 µM (inactive); GI50 [55]: 38.7 µM (inactive); GI50 [56]: > 45.3 µM (inactive); GI50 [57]: 64.6 µM (inactive)
